Molecular target: TRAP protein (Staphylococcus aureus, UniProt Q6GFM2)
Assay type: biochemical
Design: 6xHis (C); made in house; host or cells: Escherichia coli
Details: for in vitro phosphorylation of TRAP protein by using metal ions: 20 μM or 200 μM metal ions, 37° C. 30 minutes, FIG. 2; for metal ion concentration above which TRAP protein is maximally phosphorylated: various ion concentrations, other conditions as Example 3, FIG. 3; for TRAP phosphorylation induced by oxidative and reductive agents: same procedure as Example 3, FIG. 5
Description: The TRAP protein obtained in Example 2 was prepared with each tube according to following compositions of Table 2.
The protein sample prepared above was reacted at 37° C. for 30 minutes, then mixed with 2× loading dye 10 l (BioRad), and analyzed by performing SDS-PAGE at 150 V for an hour. Afterward, the resulting gel was dried and exposed onto an X-ray film to measure a degree of phosphorylation. The result is illustrated in FIG. 2. In the upper part of FIG. 2, 20 μM metal ions, Mg, Zn, Cu, Fe, Mn, Ni, Co are used in Lane 1 through Lane 7, respectively. In the lower part of FIG. 2, 200 μM metal ions, Mg, Cu, Zn, Ni, Co, Ca are used in Lane 1 through Lane 7, respectively.
Generally, a protein kinase binds with ATP, hydrolyzes ATP into ADP and attaches a resulting phosphate onto a specific amino acid of the protein to phosphorylate. In this process, Mg^2+ ions play a role of a subsidiary enzyme to stabilize the kinase binding with phosphates of ATP. […] The present inventors have attempted to elucidate why the TRAP protein utilizes the transition metal ions. […] Various oxidative and reductive agents were used to induce a phosphorylation in this Example.
In order to measure the TRAP phosphorylation, a quantitative analysis was performed by using FeSO4, ZnCl2 and CuCl2, in this Example. FeSO4, ZnCl2 and CuCl2, were added to each reaction at various ion concentrations and other conditions of the phosphorylation are the same as that of Example 3. The result is illustrated in FIG. 3.

Chain of TRAP protein (Q6GFM2 whole entry): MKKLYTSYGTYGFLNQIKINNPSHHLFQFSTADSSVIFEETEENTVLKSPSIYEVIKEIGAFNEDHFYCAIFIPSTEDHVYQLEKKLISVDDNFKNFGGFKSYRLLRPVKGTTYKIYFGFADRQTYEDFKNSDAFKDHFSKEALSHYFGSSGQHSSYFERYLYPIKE

[Cl][Cu][Cl] [CuCl2]
in vitro phosphorylation of TRAP protein by using metal ions: in vitro phosphorylated
metal ion concentration above which TRAP protein is maximally phosphorylated: > 20 µM

O=S(=O)([O-])[O-].[Fe+2] [FeSO4]
in vitro phosphorylation of TRAP protein by using metal ions: in vitro phosphorylated
metal ion concentration above which TRAP protein is maximally phosphorylated: > 2 µM

OO [H2O2, reference compound]
TRAP phosphorylation induced by oxidative and reductive agents: induced

[Cl-].[Cl-].[Mg+2] [Mg^2+, MgCl2]
in vitro phosphorylation of TRAP protein by using metal ions: not phosphorylated

[Cl-].[Cl-].[Zn+2] [ZnCl2]
in vitro phosphorylation of TRAP protein by using metal ions: in vitro phosphorylated
metal ion concentration above which TRAP protein is maximally phosphorylated: > 100 µM

O=C1O[C@H]([C@@H](O)CO)C(O)=C1O [ascorbic acid, reference compound]
TRAP phosphorylation induced by oxidative and reductive agents: not
TRAP phosphorylation inhibited by a reducing agent (summary statement): inhibited

— patent US7927829B2, “Method for in vitro phosphorylation of trap of Staphylococcus aureus and a method for screening the inhibitor of the trap phosphorylation” (priority 2007, dated 2011)
